Results reported in patent US20070154573A1 (priority 2005, published 2007).
Values after ≈ are worked out from the molar mass of the structure shown. Read-outs that look alike come from different tables or passages of the source. Marks after values point to notes of the source that are not given here.

Experiments:
PANC1 (pancreas) [1] = conditions: for IC50: Homo sapiens, PANC-1, read-out: IC50 of standard agent alone
T24 (bladder) [2] = conditions: for IC50: Homo sapiens, read-out: IC50 of standard agent alone
T24 (bladder) [3] = tested on: T24 (bladder)
PANC1 (pancreas) [4] = tested on: PANC1 (pancreas)
MT-4 cells = assay: Viability of mock-infected MT-4 cells (MTT); format: cell-based; conditions: viability of mock-infected MT-4 cells reduced by 50%
Description: Compound concentrations (μg/ml) required to reduce the viability of mock-infected MT-4 cells by 50% are determined by the MTT-method.

HIV-1 = conditions: 50% protection of MT-4 cells, MTT-method
Description: 1-Mock-infected MT-4 cell lines are used to support the growth of the HIV-1 virus.
Compound concentrations (μg/ml) required to achieve 50% protection of MT-4 cells from the HIV-1 induced cytopathogenecity, as determined by the MTT-method.

[5] = molecular target: reverse-transcriptase enzyme; assay: Efficacy against reverse-transcriptase (RT); format: biochemical; conditions: in vitro
Description: 5.a Efficacy Against Reverse-Transcriptase (RT) Using Phosphonoformate as Inhibitors of RT • The inhibitory effect of the cold extract according to the present invention against the reverse-transcriptase enzyme is also studied using three different concentrations (0.1, 1 and 10 μg/ml) in vitro and compared with the phosphonoformate (PFA) as inhibitors of RT.

SMILES | IC50 (H460 (lung)) [µg/mL] | IC50 (T24 (bladder) [3]) [µg/mL] | IC50 (HCT116 (colon)) [µg/mL] | also measured
CC(=O)O[C@H]1C(=O)[C@@]2(C)[C@H]([C@H](OC(=O)c3ccccc3)[C@]3(O)C[C@H](OC(=O)[C@H](O)[C@@H](NC(=O)c4ccccc4)c4ccccc4)C(C)=C1C3(C)C)[C@]1(OC(C)=O)CO[C@@H]1C[C@@H]2O [TAXOL, taxol] | 0.0019 (≈ 0.00223 µM) | – | – | IC50 (PANC1 (pancreas) [1]): 0.0019 µg/mL (≈ 0.00223 µM); IC50 (T24 (bladder) [2]): 0.01 µg/mL (≈ 0.0117 µM)
CC(=O)O[C@@]12CO[C@@H]1C[C@H](O)[C@@]1(C)C(=O)[C@H](O)C3=C(C)[C@@H](OC(=O)[C@H](O)[C@@H](NC(=O)OC(C)(C)C)c4ccccc4)C[C@@](O)([C@@H](OC(=O)c4ccccc4)[C@H]21)C3(C)C [Taxotere, taxotere] | 0.059 (≈ 0.073 µM) | 0.163 (≈ 0.202 µM) | – | –
O=c1[nH]cc(F)c(=O)[nH]1 [5-FU, 5-fluoro-uracil] | 0.157 (≈ 1.21 µM) | – | – | IC50 (PANC1 (pancreas) [1]): 0.247 µg/mL (≈ 1.9 µM); IC50 (T24 (bladder) [2]): 0.429 µg/mL (≈ 3.3 µM)
CCC1=C[C@@H]2CN(C1)Cc1c([nH]c3ccccc13)[C@@](C(=O)OC)(c1cc3c(cc1OC)N(C)[C@H]1[C@@](O)(C(=O)OC)[C@H](OC(C)=O)[C@]4(CC)C=CCN5CC[C@]31[C@@H]54)C2 [Navelbine, navelbine] | 0.057 (≈ 0.0732 µM) | 0.144 (≈ 0.185 µM) | 0.06 (≈ 0.077 µM) | IC50 (PANC1 (pancreas) [4]): 0.119 µg/mL (≈ 0.153 µM)
Cc1cn([C@H]2C[C@H](N=[N+]=[N-])[C@@H](CO)O2)c(=O)[nH]c1=O [AZT] | – | – | – | IC50 (MT-4) (MT-4 cells): >10 µg/mL; EC50 (HIV-1) (HIV-1): 0.01 µg/mL (≈ 0.0374 µM)
COc1cccc2c1C(=O)c1c(O)c3c(c(O)c1C2=O)C[C@@](O)(C(=O)CO)C[C@@H]3O[C@H]1C[C@H](N)[C@H](O)[C@H](C)O1 [ADR, adriamycin] | 0.004 (≈ 0.00736 µM) | – | 0.006 (≈ 0.011 µM) | IC50 (PANC1 (pancreas) [1]): 0.022 µg/mL (≈ 0.0405 µM); IC50 (T24 (bladder) [2]): 0.058 µg/mL (≈ 0.107 µM)
O=C(O)P(=O)(O)O [PFA, phosphonoformate] | – | – | – | IC50, reverse-transcriptase enzyme [5]: 6 to 20 µg/mL
CC[C@@]1(O)C(=O)OCc2c1cc1n(c2=O)Cc2cc3c(CN(C)C)c(O)ccc3nc2-1 [Topotecan, topotecan] | 0.0079 (≈ 0.0187 µM) | 0.0032 (≈ 0.00759 µM) | 0.0066 (≈ 0.0157 µM) | –
CO[C@@]12[C@H](COC(N)=O)C3=C(C(=O)C(C)=C(N)C3=O)N1C[C@@H]1N[C@@H]12 [Mitomycin, mitomycin-C] | 0.009 (≈ 0.0269 µM) | 0.056 (≈ 0.167 µM) | – | –
O=P1(N(CCCl)CCCl)NCCCO1 (stereo not shown) [CYACT, cyclophosphamide] | – | 0.32 (≈ 1.23 µM) | – | IC50 (PANC1 (pancreas) [4]): 0.193 µg/mL (≈ 0.739 µM)
N.N.[Cl][Pt][Cl] [Cis-Platin, cisplatin] | – | – | > 30 | IC50 of standard agent alone (PANC1 (pancreas) [1]; PANC1, no Breastin, Exp. GF654): 5.48 µg/mL; IC50 of standard agent alone (T24 (bladder) [2]; T24, no Breastin, Exp. GF649): >30 µg/mL
Nc1nc2[nH]cc(CCc3ccc(C(=O)N[C@@H](CCC(=O)O)C(=O)O)cc3)c2c(=O)[nH]1 [Alimta, alimta] | 0.018 (≈ 0.0421 µM) | – | – | standard agent alone, based on IC70 values (PANC1 (pancreas) [1]; PANC1, no Breastin, Exp. GF683, IC70): <100^2) μg/ml
